Drawing on paper PMC11208024, “Cholestenoic acid as endogenous epigenetic regulator decreases hepatocyte lipid accumulation in vitro and in vivo” (American Journal of Physiology - Gastrointestinal and Liver …, 2023), this text covers IC50, EC50 and inhibition for two molecules.

What all share (assay type): biochemical
One assay has as its target DNMT3b (Homo sapiens, UniProt Q9UBC3). As to the kind of experiment: radiometric methyltransferase assay with recombinant enzyme, Lambda DNA substrate and 3H-SAM.
A further assay deals with DNMT3a (Homo sapiens, UniProt Q9Y6K1). Described as above.
The target of assay [1] is T1, DNA methyltransferases 1 (DNMT1) (Homo sapiens, UniProt P26358). Description: radiometric methyltransferase assay with recombinant enzyme, poly(dI-dC) and 3H-SAM; activation at low, inhibition at higher concentration (IC50 […]).
Assay [2] addresses T1, DNA methyltransferases 1 (DNMT1). As to the kind of experiment: positive control in radiometric DNMT1 assay; […] inhibition at […].

T1 sequence (P26358 whole entry): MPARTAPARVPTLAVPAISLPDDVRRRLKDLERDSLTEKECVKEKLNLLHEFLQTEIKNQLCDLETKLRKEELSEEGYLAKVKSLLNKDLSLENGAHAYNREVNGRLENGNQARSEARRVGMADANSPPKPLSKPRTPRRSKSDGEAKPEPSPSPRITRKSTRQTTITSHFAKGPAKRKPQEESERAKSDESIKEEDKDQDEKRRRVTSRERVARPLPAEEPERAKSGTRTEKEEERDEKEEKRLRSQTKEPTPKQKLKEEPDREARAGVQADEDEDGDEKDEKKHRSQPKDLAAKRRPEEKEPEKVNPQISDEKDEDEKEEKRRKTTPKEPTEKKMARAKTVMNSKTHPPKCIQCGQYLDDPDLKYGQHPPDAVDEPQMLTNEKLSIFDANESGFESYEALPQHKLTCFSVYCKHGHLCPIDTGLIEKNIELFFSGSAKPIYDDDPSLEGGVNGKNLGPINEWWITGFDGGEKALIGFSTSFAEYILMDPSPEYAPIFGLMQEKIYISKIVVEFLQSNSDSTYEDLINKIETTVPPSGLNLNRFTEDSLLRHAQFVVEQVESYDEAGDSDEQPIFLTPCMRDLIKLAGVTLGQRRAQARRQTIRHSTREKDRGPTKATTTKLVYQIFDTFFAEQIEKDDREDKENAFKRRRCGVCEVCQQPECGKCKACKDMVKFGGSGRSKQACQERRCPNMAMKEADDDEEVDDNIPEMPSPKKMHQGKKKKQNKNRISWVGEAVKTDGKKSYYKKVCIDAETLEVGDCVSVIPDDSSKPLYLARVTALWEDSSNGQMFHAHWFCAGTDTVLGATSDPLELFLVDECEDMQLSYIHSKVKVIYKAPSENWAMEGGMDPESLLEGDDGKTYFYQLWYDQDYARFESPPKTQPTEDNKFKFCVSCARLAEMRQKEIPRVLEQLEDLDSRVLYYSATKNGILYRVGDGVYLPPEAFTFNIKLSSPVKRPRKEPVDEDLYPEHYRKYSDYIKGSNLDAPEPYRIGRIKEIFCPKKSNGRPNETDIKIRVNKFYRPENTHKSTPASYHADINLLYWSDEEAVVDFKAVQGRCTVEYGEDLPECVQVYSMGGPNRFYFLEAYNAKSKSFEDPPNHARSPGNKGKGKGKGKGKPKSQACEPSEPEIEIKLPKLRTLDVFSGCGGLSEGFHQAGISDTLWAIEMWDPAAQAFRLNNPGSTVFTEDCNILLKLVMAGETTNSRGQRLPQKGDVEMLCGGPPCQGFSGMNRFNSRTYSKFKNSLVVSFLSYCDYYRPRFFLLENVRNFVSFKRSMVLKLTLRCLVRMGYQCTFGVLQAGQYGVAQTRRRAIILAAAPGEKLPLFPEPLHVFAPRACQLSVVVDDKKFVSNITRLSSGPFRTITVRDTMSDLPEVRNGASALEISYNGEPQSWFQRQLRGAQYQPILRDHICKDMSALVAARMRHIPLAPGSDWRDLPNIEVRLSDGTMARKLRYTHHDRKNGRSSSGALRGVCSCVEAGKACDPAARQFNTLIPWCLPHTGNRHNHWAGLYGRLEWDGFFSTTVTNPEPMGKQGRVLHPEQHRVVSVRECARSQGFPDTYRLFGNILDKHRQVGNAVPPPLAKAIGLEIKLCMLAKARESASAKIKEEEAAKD
Sequence of DNMT3a (Q9Y6K1 whole entry, looked up): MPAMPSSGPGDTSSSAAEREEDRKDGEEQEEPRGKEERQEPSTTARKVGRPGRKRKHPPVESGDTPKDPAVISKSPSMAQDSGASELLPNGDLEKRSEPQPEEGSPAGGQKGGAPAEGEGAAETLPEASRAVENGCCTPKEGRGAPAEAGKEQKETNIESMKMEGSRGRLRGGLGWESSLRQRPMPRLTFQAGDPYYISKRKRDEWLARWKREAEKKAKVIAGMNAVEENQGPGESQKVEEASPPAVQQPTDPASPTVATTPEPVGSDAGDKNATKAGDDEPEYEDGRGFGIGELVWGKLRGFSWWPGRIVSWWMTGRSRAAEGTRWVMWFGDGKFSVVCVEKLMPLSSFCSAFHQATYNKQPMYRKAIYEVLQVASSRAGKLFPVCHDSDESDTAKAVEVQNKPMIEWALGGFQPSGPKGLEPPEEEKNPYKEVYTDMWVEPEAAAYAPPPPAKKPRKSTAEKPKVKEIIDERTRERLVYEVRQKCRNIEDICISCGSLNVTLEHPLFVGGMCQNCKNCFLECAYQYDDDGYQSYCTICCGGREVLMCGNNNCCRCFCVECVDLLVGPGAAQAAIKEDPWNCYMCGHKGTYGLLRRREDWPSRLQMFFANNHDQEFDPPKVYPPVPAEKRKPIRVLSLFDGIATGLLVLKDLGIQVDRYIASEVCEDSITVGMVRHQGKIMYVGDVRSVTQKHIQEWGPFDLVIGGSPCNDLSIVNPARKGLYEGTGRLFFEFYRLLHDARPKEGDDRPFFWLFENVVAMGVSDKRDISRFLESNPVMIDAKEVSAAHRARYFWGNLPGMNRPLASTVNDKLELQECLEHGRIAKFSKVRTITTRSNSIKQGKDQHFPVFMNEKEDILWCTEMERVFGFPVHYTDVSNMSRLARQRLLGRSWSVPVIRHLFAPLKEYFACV

As for `C[C@H](CCC[C@@H](C)[C@H]1CC[C@H]2[C@@H]3CC=C4C[C@@H](O)CC[C@]4(C)[C@H]3CC[C@]12C)C(=O)O` [CA, Cholestenoic acid], the IC50 at DNMT3b amounted to 4.89 µM; on DNMT3a, 8.41 µM. Moreover, in assay [1], the EC50 worked out at 1.99 µM.
Take `Nc1ncnc2c1ncn2[C@@H]1O[C@H](CSCC[C@H](N)C(=O)O)[C@@H](O)[C@H]1O` [S-adenosyl homocysteine]: the inhibition at 1 µM in assay [2] turned out to be 95%.
